Experimental data: patent US9656988B2 (Pharmacyclics LLC, priority 2013, dated 2017)
Where two headings read alike, the source gives them in different places.

Target: BTK (Homo sapiens (Human), UniProt Q06187)
Experiment: Btk in vitro inhibitory activity (one of Method A TR-FRET, Method B electrophoretic mobility shift, Method C radiometric filter binding)
Assay type: biochemical
[1] = determined using one of the methods of Example 355a, 355b and 355c, read-out: BTK IC50

Chain of BTK (Q06187 whole entry): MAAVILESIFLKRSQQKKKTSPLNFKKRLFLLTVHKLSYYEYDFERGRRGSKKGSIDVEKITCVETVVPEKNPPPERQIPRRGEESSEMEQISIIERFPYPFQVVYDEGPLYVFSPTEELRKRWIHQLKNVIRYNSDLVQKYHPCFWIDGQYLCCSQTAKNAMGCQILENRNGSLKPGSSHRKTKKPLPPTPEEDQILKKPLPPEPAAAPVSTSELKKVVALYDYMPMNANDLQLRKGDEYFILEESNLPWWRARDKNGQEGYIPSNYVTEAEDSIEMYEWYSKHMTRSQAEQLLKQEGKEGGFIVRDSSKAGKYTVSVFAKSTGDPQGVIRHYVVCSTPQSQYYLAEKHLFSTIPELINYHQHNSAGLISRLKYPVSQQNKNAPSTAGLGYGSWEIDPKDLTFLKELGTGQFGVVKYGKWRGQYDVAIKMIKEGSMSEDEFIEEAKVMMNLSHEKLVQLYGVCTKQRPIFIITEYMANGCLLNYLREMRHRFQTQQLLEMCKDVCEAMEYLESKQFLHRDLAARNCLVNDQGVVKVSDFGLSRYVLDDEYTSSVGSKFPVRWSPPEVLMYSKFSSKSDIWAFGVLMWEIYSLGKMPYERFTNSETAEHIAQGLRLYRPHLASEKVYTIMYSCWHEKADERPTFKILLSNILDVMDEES

Row | SMILES | IC50 (read-out: Btk (IC50)) [µM] | IC50 [1] [µM] | IC50 (Btk (IC50)) [µM]
1 | CN1CCN([C@@H]2CCCN(c3cnc(C(N)=O)c(Nc4ccc(C5(C#N)CCN(C6CCCC6)CC5)cc4)n3)C2)C1=O [Example 271, (R)-3-(4-(4-cyano-1-cyclopentylpiperidin-4-yl)phenylamino)-5-(3-(3-methyl-2-oxoimidazolidin-1-yl)piperidin-1-yl)pyrazine-2-carboxamide] | < 0.01 |  | 
2 | CN1CCN([C@@H]2CCCN(c3cnc(C(N)=O)c(Nc4ccc(C5(C(N)=O)CCN(C6CCCC6)CC5)cc4)n3)C2)C1=O [Example 272, (R)-3-(4-(4-carbamoyl-1-cyclopentylpiperidin-4-yl)phenylamino)-5-(3-(3-methyl-2-oxoimidazolidin-1-yl)piperidin-1-yl)pyrazine-2-carboxamide] | < 0.01 |  | 
3 | CN1CCN([C@@H]2CCCN(c3cnc(C(N)=O)c(Nc4ccc(C5(C#N)CCN(C6CCC6)CC5)cc4)n3)C2)C1=O [Example 273, (R)-3-(4-(4-cyano-1-cyclobutylpiperidin-4-yl)phenylamino)-5-(3-(3-methyl-2-oxoimidazolidin-1-yl)piperidin-1-yl)pyrazine-2-carboxamide] | < 0.01 | < 0.01 | 
4 | NC(=O)c1ncc(N2CCC[C@@H](N3CCNC3=O)C2)nc1Nc1ccc(C2CCN(C3CCCC3)CC2)cc1 [Example 274, (R)-3-(4-(1-cyclopentylpiperidin-4-yl)phenylamino)-5-(3-(2-oxoimidazolidin-1-yl)piperidin-1-yl)pyrazine-2-carboxamide] | < 0.01 | < 0.01 | 
5 | CCN1CCN([C@@H]2CCCN(c3cnc(C(N)=O)c(Nc4ccc(C5CCN(C6CCCC6)CC5)cc4)n3)C2)C1=O [Example 275, (R)-3-(4-(1-cyclopentylpiperidin-4-yl)phenylamino)-5-(3-(3-ethyl-2-oxoimidazolidin-1-yl)piperidin-1-yl)pyrazine-2-carboxamide] | < 0.01 | < 0.01 | 
6 | CCN1CCN([C@@H]2CCCN(c3cnc(C(N)=O)c(Nc4ccc(C5(C)CCN(C6CC6)CC5)cc4)n3)C2)C1=O [Example 276, (R)-3-(4-(1-cyclopropyl-4-methylpiperidin-4-yl)phenylamino)-5-(3-(3-ethyl-2-oxoimidazolidin-1-yl)piperidin-1-yl)pyrazine-2-carboxamide] | < 0.01 | < 0.01 | 
7 | NC(=O)c1ncc(N2CCC[C@@H](N3CCN(C4CC4)C3=O)C2)nc1Nc1ccc(C2CCN(C3CCCC3)CC2)cc1 [Example 277, (R)-3-(4-(1-cyclopentylpiperidin-4-yl)phenylamino)-5-(3-(3-cyclopropyl-2-oxoimidazolidin-1-yl)piperidin-1-yl)pyrazine-2-carboxamide] | < 0.01 | < 0.01 | 
8 | NC(=O)c1ncc(N2CCC[C@@H](N3CCN(C4CC4)C3=O)C2)nc1Nc1ccc(C2CCN(C3CCC3)CC2)cc1 [Example 278, (R)-3-(4-(1-cyclobutylpiperidin-4-yl)phenylamino)-5-(3-(3-cyclopropyl-2-oxoimidazolidin-1-yl)piperidin-1-yl)pyrazine-2-carboxamide] | < 0.01 | < 0.01 | 
9 | CC1(c2ccc(Nc3nc(N4CCC[C@@H](N5CCN(C6CC6)C5=O)C4)cnc3C(N)=O)cc2)CCN(C2CC2)CC1 [Example 279, (R)-5-(3-(3-cyclopropyl-2-oxoimidazolidin-1-yl)piperidin-1-yl)-3-(4-(1-cyclopropyl-4-methylpiperidin-4-yl)phenylamino)pyrazine-2-carboxamide] | < 0.01 |  | 
10 | C[C@@H]1[C@H](N2CCCN(C)C2=O)CCCN1c1cnc(C(N)=O)c(Nc2ccc(C3CCN(C4CCCC4)CC3)cc2)n1 [Example 281, 3-(4-(1-cyclopentylpiperidin-4-yl)phenylamino)-5-((2R,3R)-2-methyl-3-(3-methyl-2-oxotetrahydropyrimidin-1(2H)-yl)piperidin-1-yl)pyrazine-2-carboxamide] |  | < 0.01 | < 0.01
11 | CN1CCCN([C@@H]2CCCN(c3cnc(C(N)=O)c(Nc4ccc(C5CCN(C6CCCC6)CC5)cc4)n3)C2)C1=O [Example 282, (R)-3-(4-(1-cyclopentylpiperidin-4-yl)phenylamino)-5-(3-(3-methyl-2-oxotetrahydropyrimidin-1(2H)-yl)piperidin-1-yl)pyrazine-2-carboxamide] | < 0.01 | < 0.01 | 
12 | CN1CCCN([C@@H]2CCCN(c3cnc(C(N)=O)c(Nc4ccc(C5(C)CCN(C6CCCC6)CC5)cc4)n3)C2)C1=O [Example 283, (R)-3-(4-(1-cyclopentyl-4-methylpiperidin-4-yl)phenylamino)-5-(3-(3-methyl-2-oxotetrahydropyrimidin-1(2H)-yl)piperidin-1-yl)pyrazine-2-carboxamide] | < 0.01 | < 0.01 | 
13 | CN1CCCN([C@@H]2CCCN(c3cnc(C(N)=O)c(Nc4ccc(C5CCN(C6CC6)CC5)cc4)n3)C2)C1=O [Example 284, (R)-3-(4-(1-cyclopropylpiperidin-4-yl)phenylamino)-5-(3-(3-methyl-2-oxotetrahydropyrimidin-1(2H)-yl)piperidin-1-yl)pyrazine-2-carboxamide] | < 0.01 | < 0.01 | 
14 | CN1CCCN([C@@H]2CCCN(c3cnc(C(N)=O)c(Nc4ccc(C5(C)CCN(C6CC6)CC5)cc4)n3)C2)C1=O [Example 285, (R)-3-(4-(1-cyclopropyl-4-methylpiperidin-4-yl)phenylamino)-5-(3-(3-methyl-2-oxotetrahydropyrimidin-1(2H)-yl)piperidin-1-yl)pyrazine-2-carboxamide] | < 0.01 | < 0.01 | 
15 | NC(=O)c1ncc(N2CCC[C@H]3NCC[C@H]32)nc1Nc1ccc(C2CCN(C3CCCC3)CC2)cc1 [Example 286, 3-(4-(1-cyclopentylpiperidin-4-yl)phenylamino)-5-((3aR,7aR)-dihydro-1H-pyrrolo[3,2-b]pyridin-4(2H,5H,6H,7H,7aH)-yl)pyrazine-2-carboxamide] | 0.01 to 0.1 | 0.01 to 0.1 | 
16 | CN(C)C(=O)N1CCC[C@@H]2[C@H]1CCCN2c1cnc(C(N)=O)c(Nc2ccc(C3CCN(C4CCCC4)CC3)cc2)n1 [Example 289, (4aR,8aR)-5-(5-carbamoyl-6-(4-(1-cyclopentylpiperidin-4-yl)phenylamino)pyrazin-2-yl)-N,N-dimethyloctahydro-1,5-naphthyridine-1(2H)-carboxamide] |  | 0.01 to 0.1 | 
17 | C[C@@H]1CCN(c2cnc(C(N)=O)c(Nc3ccc(C4CCN(C5CCCC5)CC4)cc3)n2)C[C@@H]1NC(=O)N(C)C [Example 290, 3-(4-(1-cyclopentylpiperidin-4-yl)phenylamino)-5-((3R,4R)-3-(3,3-dimethylureido)-4-methylpiperidin-1-yl)pyrazine-2-carboxamide] |  | 0.01 to 0.1 | 
18 | NC(=O)c1ncc(N2CCC[C@@H](NC=O)C2)nc1Nc1ccc(C2CCN(C3CCCC3)CC2)cc1 [Example 295, (R)-3-(4-(1-cyclopentylpiperidin-4-yl)phenylamino)-5-(3-formamidopiperidin-1-yl)pyrazine-2-carboxamide] | < 0.01 | < 0.01 | 
19 | CCC(=O)N[C@@H]1CCCN(c2cnc(C(N)=O)c(Nc3ccc(C4CCN(C5CCCC5)CC4)cc3)n2)C1 [Example 296, (R)-3-(4-(1-cyclopentylpiperidin-4-yl)phenylamino)-5-(3-propionamidopiperidin-1-yl)pyrazine-2-carboxamide] | < 0.01 | < 0.01 | 
